This experiment concerns rat peritoneal mast cells (Rattus norvegicus). The experiment can be described thus: In vitro histamine-release activity by using peritoneal cells from male Sprague-Dawley rats in a standard assay.

Our source for the ED50 values is ChEMBL document CHEMBL1123725, “Effect of reductive alkylation of D-lysine in position 6 on the histamine-releasing activity of luteinizing hormone-releasing hormone antagonists” (1987).

≈ marks a conversion by molar mass, not a printed value.

Take `CC(=O)NC(Cc1ccc2ccccc2c1)C(=O)NC(Cc1ccccc1)C(=O)NC(Cc1ccccc1)C(=O)N[C@@H](CO)C(=O)N[C@@H](Cc1ccc(O)cc1)C(=O)NC(Cc1c[nH]c2ccccc12)C(=O)NC(Cc1ccccc1)C(=O)N[C@@H](CC(C)C)C(=O)N1CCC[C@@H]1C(=O)NC(C)C(N)=O` (stereo in doubt): the ED50 is 46 µg/mL (≈ 32.5 µM).
